Counter-ions that a name gives are not always drawn.
Assays:
[1] = test system: round body form of B. burgdorferi; assay: SYBR Green I/PI assay on amoxicillin-induced round body form; conditions: for viability at 50 µM: Borreliella burgdorferi, 168 h, read-out: Residual viable cells (SYBR Green I/PI assay)
[2] = test system: stationary phase B. burgdorferi persisters (strain B31); assay: SYBR Green I/PI viability assay (plate reader), FDA-approved drug library screen; conditions: for Ratio of Green/Red fluorescence, Primary screening / Ratio of Green/Red fluorescence, Rescreening (first column) / Ratio of Green/Red fluorescence, Rescreening (second column): 7 days, stationary phase; for viability at 50 µM: Borreliella burgdorferi, 168 h, read-out: Residual viable cells (regression equation, SYBR Green I/PI assay)

SMILES | viability at 50 µM [1] | Ratios of green/red fluorescence, Primary screening ([1]; round body form, 50 μM, 7 days) | Ratios of green/red fluorescence, Rescreening (first column) ([1]; round body form, 50 μM, 7 days) | Ratios of green/red fluorescence, Rescreening (second column) ([1]; round body form, 50 μM, 7 days) | Ratio of Green/Red fluorescence, Primary screening ([2]; 50 μM) | Ratio of Green/Red fluorescence, Rescreening (first column) ([2]; 50 μM) | Ratio of Green/Red fluorescence, Rescreening (second column) ([2]; 50 μM) | also measured
CN[C@@H]1[C@@H](O)[C@@H](O[C@@H]2[C@@H](O)[C@H](O[C@H]3OC(CN)=CC[C@H]3N)[C@@H](N)C[C@H]2N)OC[C@]1(C)O [Sisomicin] | 33% | 6.27 | 6.12 | 6.45 | – | – | – | –
Cn1nnnc1SCC1=C(C(=O)O)N2C(=O)[C@@H](NC(=O)[C@H](O)c3ccccc3)[C@H]2SC1 [Cefamandole] | – | – | – | – | 6.71 | 7.73 | 6.52 | viability at 50 µM [2]: 50%
Nc1ccc(S(=O)(=O)O)cc1 [Sulfanilate] | – | 6.49 | 6.03 | 6.40 | – | – | – | Residual viable cells (SYBR Green I/PI assay) ([1]; round body form, 50 μM, 7 days): 34%
C[C@H]1COc2c(N3CCN(C)CC3)c(F)cc3c(=O)c(C(=O)O)cn1c23 [levofloxacin] | 41% | – | – | – | – | – | – | –
CC1(C)S[C@@H]2[C@H](NC(=O)[C@H](C(=O)O)c3ccsc3)C(=O)N2[C@H]1C(=O)O [Ticarcillin] | – | – | – | – | 6.82 | 6.72 | 6.93 | viability at 50 µM [2]: 46%
NCc1ccccc1CC(=O)N[C@@H]1C(=O)N2C(C(=O)O)=C(CSc3nnnn3CC(=O)O)CS[C@H]12 [Ceforanide] | – | – | – | – | 6.89 | 7.49 | 6.33 | viability at 50 µM [2]: 48%
Nc1ccc(S(=O)(=O)Nc2nccs2)cc1 [Sulfathiazole] | 31% | 6.38 | 6.18 | 6.17 | – | – | – | –
C=CC1=C(C(=O)O)N2C(=O)[C@@H](NC(=O)/C(=N\OCC(=O)O)c3csc(N)n3)[C@H]2SC1 [Cefixime] | 34% | 6.41 | 6.21 | 6.27 | – | – | – | –
C=C[C@H]1C[N@@]2CC[C@H]1C[C@H]2[C@H](O)c1ccnc2ccc(OC)cc12 [Quinine hydrobromide] | – | – | – | – | 7.00 | 6.85 | 6.88 | viability at 50 µM [2]: 50%
C=C1c2c(Cl)ccc(O)c2C(=O)C2=C(O)[C@]3(O)C(=O)C(C(N)=O)=C(O)[C@@H](N(C)C)[C@@H]3[C@@H](O)[C@H]12 [Meclocycline] | 33% | 6.52 | 6.23 | 6.09 | – | – | – | –
Cc1nnc(SCC2=C(C(=O)O)N3C(=O)[C@@H](NC(=O)Cn4cnnn4)[C@H]3SC2)s1 [Cefazolin] | 34% | 6.23 | 6.34 | 6.29 | – | – | – | –
COc1c(N2C[C@@H]3CCCN[C@@H]3C2)c(F)cc2c(=O)c(C(=O)O)cn(C3CC3)c12 [moxifloxacin] | 49% | – | – | – | – | – | – | –
[Bi] [Bismuth] | – | – | – | – | 6.94 | 6.82 | 6.92 | Residual viable cells (regression equation, SYBR Green I/PI assay) ([2]; 50 μM, 7-day old stationary phase cells treated for 7 days): 48%
CCn1cc(C(=O)O)c(=O)c2cc(F)c(N3CCNCC3)cc21 [norfloxacin] | 41% | – | – | – | – | – | – | –
CC(=O)NS(=O)(=O)c1ccc(N)cc1 [Sulfacetamide] | 29% | 6.26 | 6.14 | 6.20 | – | – | – | –
CCS(=O)(=O)CCn1c([N+](=O)[O-])cnc1C [Tinidazole] | 33% | 6.24 | 6.21 | 6.36 | – | – | – | –
